Legend:
[1] = target: T1, transfected human CB1 and CB2 receptors: CB1-Receptor (Homo sapiens, UniProt P21554); experiment: In-vitro determination of affinity to CB1 receptor (radioligand [^3H]-CP55940); assay type: binding
T1 construct: purchased Receptor Biology; Inc
Description: (§1) Brockie et al., "Agonist-inverse agonist characterization at CB1 and CB2 cannabinoid receptors of L-759633, L759656 and AM630", British Journal of Pharmacology, 126, 665-672, (1999), whereby the transfected human CB1 and CB2 receptors of Receptor Biology. Inc. are used. The radioligand used for both receptors is [^3H]-CP55940.
(§2) The affinity of the inventive substituted pyrazoline compounds to CB1/CB2 receptors was determined as described above.

Male NMRI mice [2] = experiment: Mouse tetrad model, agonistic effect; assay type: in vivo; conditions: 5 mg/kg i.v.
Source text: (§3) Substances with affinity for cannabinoid receptors are known to produce a wide range of pharmacological effects. It is also known that intravenous administration of a substance with affinity for cannabinoid receptors in mice produces analgesia , hypothermia, sedation and catalepsy. Individually, none of these effects can be considered as proof that a tested substance has affinity for cannabinoid-receptors, since all of these effects are common for various classes of centrally active aaents. However, substances, which show all of these effects, i.e. substances that are active in this so-called tetrad model are considered to have affinity for the cannabinoid receptors. It has further been shown that cannabinoid receptor antagonists are higly effective in blocking the effects of a cannabinoid agonist in the mouse tetrad model.
(§4) The tetrad model is described, for example, in the publication of A. C. Howlett et al, International Union of Pharmacology XXVII. Classification of Cannabinoid Receptors, Pharmacol Rev 54, 161-202 , 2002 and David R. Compton et al., "In-vivo Characterization of a Specific Cannabinoid Receptor Antagonist (SR141716A) :Inhibition of Tetrahydrocannbinol- induced Responses and Apparent Agonist Activity", J. Pharmacol. Exp. Ther. 277 , 2, 586-594, 1996. The corresponding parts of the description are hereby incorporated by reference. […]
(§5) Before testing in the behavioral procedures given below, mice are acclimatized to the experimental setting. Pre-Treatment control values are determined for analgesia hot plate latency (in seconds), rectal temperature, sedation and catalepsy.
In order to determine the agonistic activty of the substance to be tested, the mice are injected intravenously with the substance to be tested or the vehicle alone. 15 minutes after injection, latency in hot plate analgesia is measured. Rectal temperature, sedation and catalepsy are measured 20 minutes after injection.
(§6) The hot plate analgesia is determined according to the method described in Woolfe D. et al. "The evaluation of analgesic action of pethidine hydrochloride (Demerol)", J. Pharmacol. Exp. Ther. 80, 300-307,1944.
(§7) The mice are placed on a hot plate (Harvard Analgesimeter) at 55 ± 0.5 °C until they show a painful sensation by licking their paws or jumping and the time for these sensations to occur is recorded. This reading is considered the basal value (B). […]
(§8) Fifteen minuts after the administration of the substance to be tested, the mice are again placed on the hot plate and the afore described procedure is repeated. This period is called the post-treatment reading (PT).
(§9) The degree of analgesia is calculated from the formula: %MPEof Analgesia = (PT−B)/(PC−B) × 100 [formula] […]

Male NMRI mice [3] = experiment: Mouse tetrad model, antagonistic effect against Win 55212-2; assay type: in vivo; conditions: 5 mg/kg i.v. prior to Win 55212-2 in a dose of 1,25mg/kg i.v.
Source text: as §3, §4, §5
In order to determine the antagonistic activity the identical procedure is used as for the determination of the agonistic effects, but with the difference that the substance to be evaluated for its antagonistic activity is injectected 5 minutes before the intravenous injection of 1.25 mg/kg Win-55,212 a known cannabinoid-receptor agonist.
as §6, §7, §8, §9

[4] = target: T2, transfected human CB1 and CB2 receptors: CB2-Receptor (Homo sapiens, UniProt P34972); experiment: In-vitro determination of affinity to CB2 receptor (radioligand [^3H]-CP55940); assay type: binding
T2 construct: purchased Receptor Biology; Inc
T2 sequence (P34972 whole entry): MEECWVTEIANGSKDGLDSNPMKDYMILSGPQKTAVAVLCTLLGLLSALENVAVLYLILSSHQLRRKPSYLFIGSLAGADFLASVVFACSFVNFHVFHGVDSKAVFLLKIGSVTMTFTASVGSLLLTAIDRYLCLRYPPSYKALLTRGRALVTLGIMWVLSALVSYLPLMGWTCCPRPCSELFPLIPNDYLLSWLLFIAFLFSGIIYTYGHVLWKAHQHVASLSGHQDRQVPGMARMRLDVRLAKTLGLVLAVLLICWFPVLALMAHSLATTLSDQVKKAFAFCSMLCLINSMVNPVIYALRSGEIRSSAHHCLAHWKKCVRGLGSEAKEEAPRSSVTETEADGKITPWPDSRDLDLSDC
Description: as §1, §2

T1 sequence (P21554 whole entry): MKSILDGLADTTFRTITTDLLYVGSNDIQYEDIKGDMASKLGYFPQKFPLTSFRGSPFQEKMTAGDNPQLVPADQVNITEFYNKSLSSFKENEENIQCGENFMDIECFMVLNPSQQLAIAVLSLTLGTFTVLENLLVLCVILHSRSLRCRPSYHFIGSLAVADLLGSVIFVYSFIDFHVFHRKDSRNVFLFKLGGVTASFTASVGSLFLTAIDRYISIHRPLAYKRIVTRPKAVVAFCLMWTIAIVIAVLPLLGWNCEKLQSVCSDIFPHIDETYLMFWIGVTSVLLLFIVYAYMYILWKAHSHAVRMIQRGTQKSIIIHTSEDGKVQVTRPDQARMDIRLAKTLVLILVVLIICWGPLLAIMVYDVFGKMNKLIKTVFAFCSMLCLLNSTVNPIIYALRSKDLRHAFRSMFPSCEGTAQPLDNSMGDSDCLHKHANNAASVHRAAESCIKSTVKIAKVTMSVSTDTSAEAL

For `O=C(NN1CCCCC1)C1=NN(c2ccc(Cl)cc2Cl)C(c2ccc(Cl)cc2)C1` (stereo not shown) [Example 1, N-piperidinyl-5-(4-chlorophenyl)-1-(2,4-dichlorophenyl)-4,5-dihydro-1H-pyrazole-3-carboxamide], the “Ki” value [1] was under 25 nM, the “Agonistic effect A: Hot-Plate test” value (Male NMRI mice [2]; 15 minutes after injection) was 0 and the “Agonistic effect B: Hypothermia” value (Male NMRI mice [2]; 20 minutes after injection) was 0. The “Agonistic effect C: Catalepsy” value (Male NMRI mice [2]; 20 minutes after injection) was 0, the “Agonistic effect D: Sedation” value (Male NMRI mice [2]; 20 minutes after injection) was 0 and the “Antagonistic Effect A: Hot-Plate test” value (Male NMRI mice [3]) was 74. For the same compound, the “Antagonistic Effect B: Hypothermia” value (Male NMRI mice [3]) was 100, the “Antagonistic Effect C: Catalepsy” value (Male NMRI mice [3]) was 100 and the “Antagonistic Effect D: Sedation” value (Male NMRI mice [3]) was 100. The “Ki” value [4] was over 1000 nM.
